# Laboratory results: US9447100B2, “Substituted pyrazolo[1,5-A] pyrimidines as calcium receptor modulating agents” (Takeda Pharmaceutical Company Limited, priority 2002, dated 2016)
# Where a name gives a salt, the structure may show the parent alone.
row,melting point [°C],SMILES
1,158 to 160,"CCC1(CC)CC(c2ccccc2)Nc2c(C(=O)O)cnn21 (stereo not shown) [Example 37, 7,7-diethyl-5-phenyl-4,5,6,7-tetrahydropyrazolo[1,5-a]pyrimidine-3-carboxylic acid]"
2,152 to 153,"CCC(CC)(NC(=O)c1c(C)nn2c1NC(c1ccccc1F)CC2(C)C)c1ccc(C)cc1 (stereo not shown) (as salt: HCl) [Example 831, N-(1-ethyl-1-(4-methylphenyl)propyl)-5-(2-fluorophenyl)-2,7,7-trimethyl-4,5,6,7-tetrahydropyrazolo[1,5-a]pyrimidine-3-carboxamide]"
3,171 to 172,"CCC(CC)(NC(=O)c1c(C)nn2c1NC(c1cccs1)CC2(C)C)c1ccccc1 (stereo not shown) (as salt: HCl) [Example 958, N-(1-ethyl-1-phenylpropyl)-2,7,7-trimethyl-5-(2-thienyl)-4,5,6,7-tetrahydropyrazolo[1,5-a]pyrimidine-3-carboxamide]"
4,165 to 168,"CCc1ccc(C2CC(C(F)(F)F)n3ncc(C(=O)O)c3N2)cc1 (stereo not shown) [Example 28, 5-(4-ethylphenyl)-7-(trifluoromethyl)-4,5,6,7-tetrahydropyrazolo[1,5-a]pyrimidine-3-carboxylic acid]"
5,194 to 195,"CCC(CC)(NC(=O)c1c(C)nn2c1N[C@@H](c1ccccc1)CC2(C)C)c1cc(C)n(-c2ccccc2)n1 (as salt: HCl) [Example 1062, (5R)-N-(1-ethyl-1-(5-methyl-1-phenyl-1H-pyrazol-3-yl)propyl)-2,7,7-trimethyl-5-phenyl-4,5,6,7-tetrahydropyrazolo[1,5-a]pyrimidine-3-carboxamide]"
6,154 to 155,"O=C(CNC(=O)c1cnn2c1N[C@H](c1ccccc1)C[C@@H]2C(F)(F)F)c1ccccc1Cl (stereo in doubt) [Example 289, N-(2-(2-chlorophenyl)-2-oxoethyl)-5-phenyl-7-(trifluoromethyl)-4,5,6,7-tetrahydropyrazolo[1,5-a]pyrimidine-3-carboxamide]"
7,181 to 182,"Cc1ccc(C2CC(C)(C)n3nc(C)c(C(=O)O)c3N2)cc1 (stereo not shown) [Example 949, 2,7,7-trimethyl-5-(4-methylphenyl)-4,5,6,7-tetrahydropyrazolo[1,5-a]pyrimidine-3-carboxylic acid]"
8,172 to 173,"CCC(=O)Oc1ccc(C(CC)(CC)NC(=O)c2cnn3c2NC(c2ccccc2)CC3(C)C)cc1 (stereo not shown) [Example 729, 4-(1-(((7,7-dimethyl-5-phenyl-4,5,6,7-tetrahydropyrazolo[1,5-a]pyrimidin-3-yl)carbonyl)amino)-1-ethylpropyl)phenyl propionate]"
9,147 to 148,"CCC(CC)(NC(=O)c1cnn2c1NC(c1ccccc1)CC2(C)C)c1ccc(CCC(=O)OC)cc1 (stereo not shown) [Example 748, methyl 3-(4-(1-(((7,7-dimethyl-5-phenyl-4,5,6,7-tetrahydropyrazolo[1,5-a]pyrimidin-3-yl)carbonyl)amino)-1-ethyl-propyl)phenyl)propanoate]"
10,193 to 194,"Cc1ccc(C(C)(C)NC(=O)c2c(C)nn3c2NC(c2ccccc2)CC3(C)C)cc1 (stereo not shown) (as salt: HCl) [Example 794, 2,7,7-trimethyl-N-(1-methyl-1-(4-methylphenyl)ethyl)-5-phenyl-4,5,6,7-tetrahydropyrazolo[1,5-a]pyrimidine-3-carboxamide]"
11,200.9 to 201,"CCC(CC)(NC(=O)c1cnn2c1NC(c1ccccc1F)CC2(C)C)c1ccc(C(F)(F)F)cc1 (stereo not shown) [Example 675, N-(1-ethyl-1-(4-(trifluoromethyl)phenyl)propyl)-5-(2-fluorophenyl)-7,7-dimethyl-4,5,6,7-tetrahydropyrazolo[1,5-a]pyrimidine-3-carboxamide]"
12,221 to 222,"CC(C)(NC(=O)c1cnn2c1NC(c1ccccc1)CC2C(F)(F)F)c1cccc2ccccc12 (stereo not shown) [Example 368, N-(1-methyl-1-(1-naphthyl)ethyl)-5-phenyl-7-(trifluoromethyl)-4,5,6,7-tetrahydropyrazolo[1,5-a]pyrimidine-3-carboxamide]"
13,226 to 227,"CC1(C)C[C@H](c2ccccc2)Nc2c(C(=O)NC34CC5CC(CC(C5)C3)C4)cnn21 [Example 1030, (5R)-N-1-adamantyl-7,7-dimethyl-5-phenyl-4,5,6,7-tetrahydropyrazolo[1,5-a]pyrimidine-3-carboxamide]"
14,226 to 227,"CC1(C)C[C@@H](c2ccccc2)Nc2c(C(=O)NC34CC5CC(CC(C5)C3)C4)cnn21 [Example 1029, (5S)-N-1-adamantyl-7,7-dimethyl-5-phenyl-4,5,6,7-tetrahydropyrazolo[1,5-a]pyrimidine-3-carboxamide]"
15,181 to 182,"O=C(c1cnn2c1NC(c1ccccc1)CC2C(F)(F)F)N1CCN(C(c2ccccc2)c2ccccc2)CC1 (stereo not shown) [Example 274, 3-((4-benzhydryl-1-piperazinyl)carbonyl)-5-phenyl-7-(trifluoromethyl)-4,5,6,7-tetrahydropyrazolo[1,5-a]pyrimidine]"
16,180 to 182,"CCC(CC)(NC(=O)c1c(C)nn2c1N[C@@H](c1ccccc1)CC2(C)C)c1ccccc1F (as salt: HCl) [Example 1063, (5R)-N-(1-ethyl-1-(2-fluorophenyl)propyl)-2,7,7-trimethyl-5-phenyl-4,5,6,7-tetrahydropyrazolo[1,5-a]pyrimidine-3-carboxamide]"
17,153 to 154,"CCC(CC)(NC(=O)c1c(C)nn2c1NC(c1ccc(OC)cc1)CC2(C)C)c1ccc(C)cc1 (stereo not shown) (as salt: HCl) [Example 967, N-(1-ethyl-1-(4-methylphenyl)propyl)-5-(4-methoxyphenyl)-2,7,7-trimethyl-4,5,6,7-tetrahydropyrazolo[1,5-a]pyrimidine-3-carboxamide]"
18,101 to 102,"CCOC(=O)CCCOc1ccc(C(CC)(CC)NC(=O)c2cnn3c2NC(c2ccccc2)CC3(C)C)cc1 (stereo not shown) [Example 770, ethyl 4-(4-(1-(((7,7-dimethyl-5-phenyl-4,5,6,7-tetrahydropyrazolo[1,5-a]pyrimidin-3-yl)carbonyl)amino)-1-ethyl-propyl)phenoxy)butanoate]"
19,195 to 196,"CCC(CC)(NC(=O)c1cnn2c1NC(c1ccccc1)CC2(C)C)c1cccc(Br)c1 (stereo not shown) [Example 613, N-(1-(3-bromophenyl)-1-ethylpropyl)-7,7-dimethyl-5-phenyl-4,5,6,7-tetrahydropyrazolo[1,5-a]pyrimidine-3-carboxamide]"
20,167 to 169,"CCC(CC)(NC(=O)c1cnn2c1NC(c1ccccn1)CC2(C)C)c1ccc(F)cc1 (stereo not shown) [Example 601, N-(1-ethyl-1-(4-fluorophenyl)propyl)-7,7-dimethyl-5-(2-pyridinyl)-4,5,6,7-tetrahydropyrazolo[1,5-a]pyrimidine-3-carboxamide]"
21,185 to 186,"CCCC(CC)(CC)NC(=O)c1cnn2c1N[C@@H](c1ccccc1)CC2(C)C (as salt: HCl) [Example 1072, (5R)-N-(1,1-diethylbutyl)-7,7-dimethyl-5-phenyl-4,5,6,7-tetrahydropyrazolo[1,5-a]pyrimidine-3-carboxamide]"
22,156 to 157,"CCC(CC)(NC(=O)c1cnn2c1NC(c1cccc(OC)n1)CC2(C)C)c1ccc(F)cc1 (stereo not shown) [Example 603, N-(1-ethyl-1-(4-fluorophenyl)propyl)-5-(6-methoxy-2-pyridinyl)-7,7-dimethyl-4,5,6,7-tetrahydropyrazolo[1,5-a]pyrimidine-3-carboxamide]"
